Patent publication US20240148723A1, “MYCOBACTERIUM TUBERCULOSIS COMPOSITIONS AND METHODS” (priority 2021, published 2024)
Where “and” joins values, the source holds several entries; their conditions need not be identical. Equal values may be shown once.

Legend:
[1] = tested on: five PZA resistant M. tuberculosis strains; test: microbe, parasite or virus in culture; assay type: cell-based; conditions: Mycobacterium tuberculosis, 504 h, pH 6.8, read-out: MIC for PZA
[2] = tested on: M. tuberculosis PZA-resistant strains #6, #78, #98, #106, #186; assay type: cell-based; conditions: PZA-S1-Plus agar, pH 6.8, 400, 800 and 1600 μg PZA
[3] = tested on: PZA-resistant strain (PZA^R) (#6 PncA mutation L159P); assay type: cell-based, Mycobacterium tuberculosis; conditions: pH 6.8
[4] = tested on: Z6 PZA-resistant strain with mutation in pncA gene; assay type: cell-based, Mycobacterium tuberculosis
[5] = tested on: Z98 PZA-resistant strain with mutation in pncA gene; assay type: cell-based, Mycobacterium tuberculosis
[6] = tested on: Z186 PZA-resistant strain with mutation in pncA gene; assay type: cell-based, Mycobacterium tuberculosis
[7] = tested on: ORA48 PZA-resistant strain with mutation in panD gene; assay type: cell-based, Mycobacterium tuberculosis
[8] = tested on: ORA76 PZA-resistant strain with mutation in panD gene; assay type: cell-based, Mycobacterium tuberculosis
[9] = tested on: ORA136 PZA-resistant strain with mutation in panD gene; assay type: cell-based, Mycobacterium tuberculosis

`NC(=O)c1cnccn1` [PZA, Pyrazinamide] was tested. Which MIC [1] did it give?
The MIC was greater than 800 µg/mL.

And the “growth inhibition, paper disk” value [2]?
Its value is “no inhibition”.

And the “PZA concentration at which the resistant strain grew” value [3]?
The value was 800 µg/mL.

What about the “MIC of PZA” value [4] of the same molecule?
The value was “greater than 300 μg/ml”.

What about the “Percentage of CFU to Z 0” value [4] of the same molecule?
The value was 9.33% and 10.00% and 8.65% and 12.47%.

And the “MIC of PZA” value [5]?
The value was “greater than 300 μg/ml”.

And the “Percentage of CFU to Z 0” value [5]?
Its value is 6.76% and 6.62% and 5.15% and 5.81%.

What about the “MIC of PZA” value [6] of the same molecule?
The value was “greater than 300 μg/ml”.

What about the “Percentage of CFU to Z 0” value [6] of the same molecule?
Its value is 1.07% and 1.09% and 1.01% and 1.08%.

What about the “MIC of PZA” value [7] of the same molecule?
Its value is “greater than 300 μg/ml”.

What about the “Percentage of CFU to Z 0” value [7] of the same molecule?
Its value is 3.74% and 3.48% and 3.39% and 3.00%.

And the “MIC of PZA” value [8]?
The value was “greater than 300 μg/ml”.

And the “Percentage of CFU to Z 0” value [8]?
Its value is 2.26% and 1.83% and 2.33% and 2.31%.

What about the “MIC of PZA” value [9] of the same molecule?
The value was “greater than 300 μg/ml”.

And the “Percentage of CFU to Z 0” value [9]?
The value was 3.70% and 4.19% and 3.37% and 2.56%.
